Legend:
Format in all cases: cell-based, rat
aP2 mRNA = aP2 mRNA expression by real-time PCR
Experimental: (§1) Differentiation conditions 1 to 12 in FIG. 2A correspond to the 1 to 12 in FIGS. 2B, 2C, and 2D (B: photographs after culture for 7 days; C: mRNA was separated after culture for 7 days, and the level of C/EBPα mRNA expression was measured by real-time PCR (the value on day 0 of culture was set at 1); D: the level of aP2 mRNA expression was measured by real-time PCR (the value on day 7 of culture for condition 1 was set at 1)).
(§2) A continuous 7-day culture was carried out in a culture medium containing 200 ng/mL IGF-1 (normal concentration in human blood=150 to 250 ng/mL), and the amount of mRNA expression was then measured for C/EBPα (adipocyte differentiation marker), aP2 (adipocyte differentiation marker), and C/EBPβ (differentiation marker for undifferentiated adipocytes). The results are shown in FIG. 5 (A: photographs after culture for 7 days. 1: cultured with 200 ng/mL IGF-1 for 3 days and then with 22 ng/mL insulin for 4 days. 2: cultured with 200 ng/mL IGF-1 and 22 ng/mL insulin for 7 days. 3: cultured with 200 ng/mL IGF-1 for 7 days. The 1 to 3 corresponds to lanes 1 to 3 in FIGS. 5B to 5D. B: mRNA was separated after the 7-day culture and the amount of C/EBPα mRNA expression was measured by real-time PCR. The value for a culture of 3 days with 10 μg/mL insulin and then 4 days with 22 ng/mL insulin was set at 1. C: mRNA was separated after the 7-day culture and the amount of aP2 mRNA expression was measured by real-time PCR. The value for a culture of 3 days with 10 μg/mL insulin and then 4 days with 22 ng/mL insulin was set at 1. D: mRNA was separated after the 7-day culture and the amount of C/EBPβ mRNA expression was measured by real-time PCR. The value for a culture of 3 days with 10 μg/mL insulin and then 4 days with 22 ng/mL insulin was set at 1.).
The influence of various combinations of IGF-1 and insulin on VAC differentiation induction and maturation was investigated. The results are shown in FIG. 6 (A: photographs after culture for 7 days. 1: cultured with 200 ng/mL IGF-1 for 3 days and then with 2.5 ng/mL insulin for 4 days. 2: cultured with 200 ng/mL IGF-1 and 2.5 ng/mL insulin for 7 days. 3: cultured with 200 ng/mL IGF-1 for 3 days and then with 0.85 ng/mL insulin for 4 days. 4: cultured with 200 ng/mL IGF-1 and 0.85 ng/mL insulin for 7 days. B: mRNA was separated after the 7-day culture and the amount of C/EBPβ mRNA expression was measured by real-time PCR. The value for a culture of 3 days with 10 μg/mL insulin and then 4 days with 22 ng/mL insulin was set at 1. C: mRNA was separated after the 7-day culture and the amount of aP2 mRNA expression was measured by real-time PCR. The value for a culture of 3 days with 10 μg/mL insulin and then 4 days with 22 ng/mL insulin was set at 1.).

[1] = tested on: VSC (visceral stromal cells=preadipocytes); experiment: Induction of VSC-to-VAC differentiation (lipid droplet formation, photographs after culture)
Experimental: Mesenteric fat tissue was excised from the abdominal cavity of 3-5 week old male Sprague-Dawley rats (average body weight=100 g) and was washed three times with Hanks' balanced salt solution. The fat was minced with scissors and then incubated for 40 minutes at 37° C. in DMEM/F-12 culture medium containing 0.2% collagenase and 1.0% bovine albumin. The collagenase-digested tissue suspension was subsequently filtered through 600 μm mesh and Hanks' balanced salt solution was added. After centrifugation for 10 minutes at 800×g, the sediment was washed three times with Hanks' balanced salt solution and once with DMEM/F-12 culture medium and was then filtered through 100 μm mesh. The cell suspension thus prepared from the intraabdominal mesenteric fat was seeded to dishes at 0.5×10^5 cells/cm^2, and incubated at 37° C. and 5% CO2 in the culture medium with the indicated composition. The culture medium was changed once a day or once every two days. The culture medium was prepared by the addition of 17 mM pantothenic acid, 33 mM biotin, 100 mM ascorbic acid, 1 mM octanoic acid, 50 nM triiodothyronine, 100 unit/mL penicillin, and 100 mg/mL streptomycin to a basal culture medium of (DMEM)/F12 containing 10% NCS. Insulin and IGF-1 were added in the specified concentrations, and the resulting culture medium was used in the experiments described below.

C/EBPα mRNA = C/EBPα mRNA expression by real-time PCR
Experimental: as §1, §2
Additional investigations were then carried out into the IGF-1 concentration required for differentiation. Proceeding in the same manner as described above, VSCs were cultured for 7 days in the presence of 0.85 ng/mL insulin and IGF-1 at different concentrations. After culturing, mRNA was separated and the amount of C/EBPα mRNA expression was measured by real-time PCR. After culture for 7 days, mRNA was separated and the amount of C/EBPα mRNA expression and the amount of C/EBPβ mRNA expression were measured by real-time PCR. The value for the amount of mRNA expression for culture with 10 μg/mL insulin for 3 days followed by with 22 ng/mL insulin for 4 days was set at 1.

C/EBPβ mRNA = C/EBPβ mRNA expression by real-time PCR
Experimental: as §2, with “real-time PCR. […] D: mRNA” for “real-time PCR. The value for a culture of 3 days with 10 μg/mL insulin and then 4 days with 22 ng/mL insulin was set at 1. D: mRNA”, “real-time PCR. […]” for “real-time PCR. The value for a culture of 3 days with 10 μg/mL insulin and then 4 days with 22 ng/mL insulin was set at 1.).”
The influence of various combinations of IGF-1 and insulin on VAC differentiation induction and maturation was investigated. […] C: mRNA was separated after the 7-day culture and the amount of aP2 mRNA expression was measured by real-time PCR. […]

insulin receptor = experiment: Insulin receptor expression by immunoblotting with anti-IR antibody
Experimental: The amount of insulin receptor expression in the maturation process was then examined (FIG. 4). After the VSCs had been cultured for 7, 8, or 9 days, the total cell lysate (20 μg protein) was separated by SDS-PAGE and the IR was detected by immunoblotting with anti-IR antibody. In addition, actin was detected by immunoblotting with anti-actin antibody as the loading control. […] VSCs were cultured for 3 days in the presence of 10 μg/mL insulin or 200 ng/mL IGF-1, after which the total cell lysate (20 μg protein) was separated by SDS-PAGE and the insulin receptor was detected by immunoblotting with anti-insulin receptor (IR) antibody. Actin was detected by immunoblotting with anti-actin antibody as a loading control. […] After culture for 7 days, the total cell lysate (20 μg protein) was separated by SDS-PAGE and the IR was determined by immunoblotting with anti-IR antibody. Actin was detected by immunoblotting with anti-actin antibody as a loading control.

adiponectin = experiment: Adiponectin content of the culture medium (ELISA)
Experimental: The conventionally used dexamethasone-based differentiation induction system was first evaluated. 2.5 μM dexamethasone and 10 μg/mL insulin or 10 μg/mL insulin was added to the medium to allow for VSC differentiation and maturation for 7 days. […] When dexamethasone was also added to the differentiation induction culture medium, single cell enlargement was promoted (FIG. 1B), although there was no difference in the differentiation efficiency. In addition, the norepinephrine-induced triglyceride degradation reaction was reduced (data not shown).
After 9-day culture with 200 ng/mL IGF-1 and different insulin concentrations, the culture medium was taken and the adiponectin content was measured by ELISA. When VSCs were cultured for 9 days with the constant presence of 200 ng/mL IGF-1 and insulin at a concentration of 10 μg/mL (lane 1), 70 ng/mL (lane 2), 22 ng/mL (lane 3), or 2.5 ng/mL (lane 4), the amount of adiponectin secretion was reduced at insulin concentrations of 70 ng/mL and above (FIG. 9A). When VSCs were cultured for the first 4 days with 200 ng/mL IGF-1 and 2.5 ng/mL insulin followed by 5 days with 200 ng/mL IGF-1 and insulin at a concentration of 10 μg/mL (lane 1), 70 ng/mL (lane 2), 22 ng/mL (lane 3), or 2.5 ng/mL (lane 4), adiponectin secretion was again reduced at insulin concentrations of 70 ng/mL and above (FIG. 9B). […]

adiponectin mRNA = experiment: Adiponectin mRNA expression by real-time PCR
Experimental: The level of adiponectin mRNA expression was then examined with the aim of investigating the influence of the insulin concentration on VAC function (FIG. 3). After the VSCs had been differentiated by 10 μg/mL insulin for 3 days, they were then cultured for 4 days in the presence of 10 μg/mL insulin (lane 2), 0.2 μg/mL insulin (lane 3), 70 ng/mL insulin (lane 4), 22 ng/mL insulin (lane 5), or 7.4 ng/mL insulin (lane 6). After the 7-day culture, mRNA was separated and the amount of adiponectin mRNA expression was measured by real-time PCR. The value for the 7-day culture in the absence of insulin was set at 1. The results are shown in FIG. 3 (1: cultured for 7 days without insulin. 2: cultured for 7 days with 10 μg/mL insulin. 3: induction of differentiation for 3 days with 10 μg/mL insulin followed by culture for 4 days with 0.2 μg/mL insulin. 4: induction of differentiation for 3 days with 10 μg/mL insulin followed by culture for 4 days with 70 ng/mL insulin. 5: induction of differentiation for 3 days with 10 μg/mL insulin followed by culture for 4 days with 22 ng/mL insulin. 6: induction of differentiation for 3 days with 10 μg/mL insulin followed by culture for 4 days with 7.4 ng/mL insulin.).

[2] = 7-day culture with only IGF-1 (200 ng/mL), vs 10 μg/mL insulin then 22 ng/mL insulin

**Q.** For insulin-like growth factor-1 [IGF-1], which “expression of aP2 mRNA” value (aP2 mRNA; [2]) is on record?
**A.** increased

**Q.** What about the “accumulation of lipid droplets” value ([1]; 200 ng/mL IGF-1 alone, 7 days) of the same substance?
**A.** not seen

**Q.** And the differentiation efficiency ([1]; IGF-1 concentrations of 50 ng/mL and below, plus 0.85 ng/mL insulin, 7 days)?
**A.** decline

**Q.** What about the “expression of C/EBPα mRNA” value (C/EBPα mRNA; [2]) of the same substance?
**A.** increased

**Q.** And the “amount of C/EBPα mRNA expression” value (C/EBPα mRNA; as a function of the IGF-1 concentration (10 to 800 ng/mL) plus 0.85 ng/mL insulin, 7 days)?
**A.** no changes

**Q.** What about the “amount of C/EBPβ mRNA” value (C/EBPβ mRNA; 7-day culture with IGF-1 alone (200 ng/mL; FIG. 5D, lane 3)) of the same substance?
**A.** maintained

**Q.** What about the “amount of C/EBPβ mRNA expression” value (C/EBPβ mRNA; IGF-1 concentrations of 50 ng/mL or less vs 200 ng/mL IGF-1, plus 0.85 ng/mL insulin, 7 days) of the same substance?
**A.** increased amounts of expression

**Q.** Which results are given for insulin?
**A.** amount of insulin receptor expression (insulin receptor; 3-day induction with 10 μg/mL insulin vs 200 ng/mL IGF-1 or 200 ng/mL IGF-1 and 22 ng/mL insulin): decline; insulin receptor expression (insulin receptor; 3 days 10 μg/mL insulin, maturation with 22 ng/mL, then culture with insulin at 70 ng/mL or greater vs 22 ng/mL, 7, 8 or 9 days): substantial decline; adiponectin secretion (adiponectin; 4 days 200 ng/mL IGF-1 and 2.5 ng/mL insulin, then 5 days 200 ng/mL IGF-1 and insulin at 70 ng/mL and above): again reduced; amount of adiponectin secretion (adiponectin; 9 days, constant 200 ng/mL IGF-1 and insulin at 70 ng/mL and above (vs 22 or 2.5 ng/mL)): reduced; aP2 mRNA expression level (aP2 mRNA; 10 μg/mL insulin for 3 days, then at least 22 ng/mL insulin (condition 11), vs constant 10 μg/mL insulin): the same level; aP2 mRNA expression level (aP2 mRNA; 10 μg/mL insulin for 3 days, then insulin at or below 7.4 ng/mL (condition 12), vs constant 10 μg/mL insulin): less aP2 expression; aP2 mRNA expression level (aP2 mRNA; 10 μg/mL insulin for only 2 days (condition 5), vs constant 10 μg/mL insulin): less aP2 expression; aP2 mRNA expression level (aP2 mRNA; constant presence of 0.2 μg/mL insulin, vs constant 10 μg/mL insulin (condition 2)): less aP2 expression; lipid droplet formation ([1]; 0.2 μg/mL insulin, 7 days (condition 3)): entirely absent; lipid droplet accumulation ([1]; 10 μg/mL insulin for 2 days followed by 0.2 μg/mL insulin, total of 7 days (condition 5)): significant decline; lipid droplet formation ([1]; 10 μg/mL insulin for 3 days, then insulin reduced to 22 ng/mL (condition 11)): same level; differentiation into adipocytes (lipid droplets) ([1]; 10 μg/mL insulin, 7 days (condition 2)): differentiation into adipocytes occurred; fat accumulation ([1]; 10 μg/mL insulin, VSC differentiation and maturation for 7 days): normal fat accumulation; lipid droplet accumulation ([1]; 3-day treatment with 10 μg/mL insulin without the ensuing 0.2 μg/mL insulin, vs system containing 0.2 μg/mL insulin): significant decline; C/EBPα mRNA expression level (C/EBPα mRNA; 10 μg/mL insulin for 2 days (conditions 4 and 5), 7 days): did not increase; C/EBPα mRNA expression level (C/EBPα mRNA; 10 μg/mL insulin for only 3 days followed by absence of insulin for 4 days (condition 6)): did rise; C/EBPα mRNA expression level (C/EBPα mRNA; constant presence of 0.2 μg/mL insulin (condition 3), 7 days): did not increase; level of adiponectin mRNA expression (adiponectin mRNA; 10 μg/mL insulin for 3 days then 4 days 7.4 ng/mL insulin (lane 6)): reduced; level of adiponectin mRNA expression (adiponectin mRNA; 7-day culture with 10 μg/mL insulin (lane 2) vs 3 days 10 μg/mL then 4 days 0.2 μg/mL to 22 ng/mL (lanes 3 to 5)): lower level

Source: patent US20090233326A1, “METHOD FOR INDUCTION OF THE DIFFERENTIATION OF VISCERAL FAT CELL” (priority 2006, published 2009)
